Molecular target: Recombinant MAPKAPK2 (Homo sapiens, UniProt P49137)
Assay: Determination of MK-2 IC50 (HSP-peptide phosphorylation, anion exchange resin capture assay)
Format: biochemical
Settings: MK-2 Avg. IC50, Table 2, tricyclic aminocyanopyridine MK-2 inhibitors
Method: The phosphorylation of HSP-peptide ([…]) by MAPKAPK2 was measured using an anion exchange resin capture assay method. […] The reaction was terminated and [γ^33P]ATP was removed from solution by the addition of 150 μl of AG 1×8 ion exchange resin in 900 mM sodium formate pH 3.0. A 50 μl aliquot of head volume was removed from the quenched reaction mixture and added to a 96-well plate, 150 μl of Microscint-40 (Packard) was added and the amount of phosphorylated-peptide was determined. Allow the Microscint to sit in the plates for 60 minutes prior to counting.
Compounds are evaluated as potential inhibitors of the MK2 kinase by measuring their effects on MK2 phosphorylation of the peptide substrate. Compounds may be screened initially at two concentrations prior to determination of IC50 values. Screening results are expressed as percent inhibition at the concentrations of compound tested. For IC50 value determinations, compounds are tested at six concentrations in ten-fold serial dilutions with each concentration tested in triplicate. Results are expressed as IC50 values in micromolar. The assay is performed at a final concentration of 2% DMSO.

Chain of Recombinant MAPKAPK2 (P49137 whole entry, species assumed): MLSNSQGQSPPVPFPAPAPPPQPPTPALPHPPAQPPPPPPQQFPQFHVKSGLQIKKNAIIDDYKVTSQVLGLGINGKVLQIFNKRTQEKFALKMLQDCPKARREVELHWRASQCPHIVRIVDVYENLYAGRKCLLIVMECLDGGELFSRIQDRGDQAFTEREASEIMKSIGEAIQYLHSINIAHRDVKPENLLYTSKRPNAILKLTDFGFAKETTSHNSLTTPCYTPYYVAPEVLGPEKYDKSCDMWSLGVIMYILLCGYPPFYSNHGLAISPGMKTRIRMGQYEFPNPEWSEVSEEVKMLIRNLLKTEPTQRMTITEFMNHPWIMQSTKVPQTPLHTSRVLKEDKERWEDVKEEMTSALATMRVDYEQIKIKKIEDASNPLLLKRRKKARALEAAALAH

SMILES	IC50 [µM]
N#Cc1c(N)nc2c(c1N)Cc1cccc(OCCO)c1O2 [Example 70]	154
N#Cc1c(N)nc2c(c1N)Cc1ccc(OCCN3CCCC3)cc1O2 [Example 25]	1.68
N#Cc1c(N)nc2c(c1N)Cc1cc(OCCN)c(OCCN)cc1O2 [Example 31]	2.55
COc1ccc2c(c1)Oc1nc(N)c(C#N)c(N)c1C2 [Example 34]	3.24
COc1ccc(Nc2c(C#N)c(N)nc3c2Cc2cc(OC)c(OC)cc2O3)cc1 [Example 40]	6.11
CCNc1c(C#N)c(N)nc2c1Cc1ccc(OCC)cc1O2 [Example 37]	4.76
N#Cc1c(N)nc2c(c1N)Cc1cccc([N+](=O)[O-])c1O2 [Example 32]	2.58
COc1ccc2c(c1)Cc1c(nc(N)c(C#N)c1N)O2 [Example 58]	43
COc1cccc2c1Oc1nc(N)c(C#N)c(N)c1C2 [Example 24]	1.37
N#Cc1c(N)nc2c(c1N)Cc1cc([N+](=O)[O-])ccc1S2(=O)=O [Example 64]	80.8
N#Cc1c(N)nc2c(c1N)Cc1cccc(OCCN)c1O2 [Example 71]	161
N#Cc1c(N)nc2c(c1N)Cc1ccc(OCC(=O)O)cc1O2 [Example 23]	0.916
CCCNc1c(C#N)c(N)nc2c1Cc1cc(OC)c(OC)cc1O2 [Example 50]	15.6
N#Cc1c(N)nc2c(c1N)Cc1cccc(OCCN3CCCC3)c1O2 [Example 59]	45.2
CN(C)c1ccc2c(c1)Cc1c(nc(N)c(C#N)c1N)O2 [Example 52]	17.6
N#Cc1c(N)nc2c(c1N)C(C(C#N)C#N)c1cc(O)ccc1O2 (stereo not drawn) [Example 35]	4.22
C=CCOc1ccc2c(c1)Oc1nc(N)c(C#N)c(N)c1C2 [Example 56]	33.8

Same assay, conditions: MK-2 Avg. IC50, Table I, aminocyanopyridine MK-2 inhibitors

SMILES	IC50 [µM]
N#Cc1c(-c2ccc(C(F)(F)F)cc2F)cc(-c2ccco2)nc1N [Example 128]	133
N#Cc1c(N)nc2c(c1-c1ccccc1OC(F)F)CCc1[nH]ncc1-2 [Example 105]	96.1
CC1(C)Cc2n[nH]cc2-c2nc(N)c(C#N)c(-c3ccco3)c21 [Example 114]	109
N#Cc1c(-c2ccccc2F)cc(-c2cccc(O)c2)nc1N [Example 51]	24.2
N#Cc1c(-c2c[nH]c(C(N)=O)c2)cc(-c2ccco2)nc1N [Example 6]	2.41
N#Cc1c(-c2cnc[nH]2)cc(-c2ccc(O)cc2)nc1N [Example 12]	3.62
N#Cc1c(-c2ccc(C(=O)O)cc2)cc(-c2ccco2)nc1N [Example 92]	59.8
N#Cc1c(N)nc2c(c1-c1ccccc1)CCc1n[nH]cc1-2 [Example 7]	2.73
N#Cc1c(N)nc2c(c1-c1ccco1)C1CCC2C1 (stereo not drawn) [Example 122]	122
COC(=O)c1cccc(-c2c(C#N)c(N)nc3c2CCc2[nH]ncc2-3)c1 [Example 147]	191
N#Cc1c(-c2cnc[nH]2)cc(-c2ccco2)nc1N [Example 21]	5.95
N#Cc1c(-c2cnc[nH]2)cc(-c2ccccc2)nc1N [Example 35]	9.4
CCOC(=O)c1ccc(-c2cc(-c3cnc[nH]3)c(C#N)c(N)n2)cc1 [Example 78]	49.1
N#Cc1c(N)nc2c(c1-c1ccco1)CCc1cc(N)ccc1-2 [Example 74]	46.8
N#Cc1c(N)nc(SCC(=O)c2ccc(Cl)cc2)c(C#N)c1-c1ccco1 [Example 87]	63.3
COc1ccc(-c2cc(-c3nnc[nH]3)c(C#N)c(N)n2)cc1 [Example 48]	17.3
CCCc1nc(N)c(C#N)c(N)c1C#N [Example 109]	99.8
N#Cc1c(-c2ccccc2F)cc(-c2ccc(O)c(O)c2)nc1N [Example 32]	9.2
CCC1Cc2c(nc(N)c(C#N)c2N)O1 (stereo not drawn) [Example 65]	37.9
N#Cc1c(-c2ccccc2F)cc(-c2ccc[nH]2)nc1N [Example 58]	29.3
CSc1cc(-c2ccco2)nc(N)c1C#N [Example 50]	22.5
N#Cc1c(-c2ccco2)cc(-c2c[nH]c3ccccc23)nc1N [Example 102]	87.1
C#CCOCC1Cc2c(nc(N)c(C#N)c2N)O1 (stereo not drawn) [Example 110]	105
N#Cc1c(-c2ccco2)cc(-c2cn[nH]c2)nc1N [Example 39]	11.6
N#Cc1c(-c2ccccc2F)cc(-c2ccco2)nc1NCC(=O)O [Example 115]	114
Cn1cnc(-c2cc(-c3ccccc3)nc(N)c2C#N)c1 [Example 28]	7.63
N#Cc1c(-c2ccco2)cc(-c2ccco2)nc1N [Example 75]	47.6
N#Cc1c(-c2ccc(C(F)(F)F)cc2)cc(-c2ccco2)nc1N [Example 112]	107

SMILES	IC50 [µM]
CCc1c(C#N)c(N)nc2[nH]nc(N)c12 [Example 131]	146
COc1ccccc1-c1cc(-c2ccc(O)cc2)nc(N)c1C#N [Example 145]	183
N#Cc1c(-c2ccco2)cc(-c2nccs2)nc1N [Example 142]	167
N#Cc1c(-c2ccco2)cc(-c2cc[nH]n2)nc1N [Example 29]	7.72
CC(C)(C)NS(=O)(=O)c1ccc(-c2cc(-c3ccccc3)c(C#N)c(N)n2)cc1 [Example 90]	68
N#Cc1c(-c2ccco2)cc(-c2ccc3c(c2)Nc2ccccc2S3)nc1N [Example 136]	158
N#Cc1ccc(-c2ccco2)nc1N [Example 98]	77.5
N#Cc1ccc(-c2c(C#N)c(N)nc3c2CCc2[nH]ncc2-3)cc1 [Example 81]	52.1
N#Cc1c(-c2ccc(Oc3ccccc3)cc2)cc(-c2ccco2)nc1N [Example 85]	59.3
N#Cc1c(-c2ccco2)cc(-c2ccc(C(=O)O)cc2)nc1N [Example 16]	4.63
N#Cc1c(-c2ccco2)cc(-c2ccc(O)cc2)nc1N [Example 121]	122
N#Cc1c(-c2ccccc2F)cc(-c2ccco2)nc1N1CCCCC1 [Example 143]	176
N#Cc1c(-c2cnc[nH]2)cc(-c2ccc(C(=O)O)cc2)nc1N [Example 30]	8.37
COc1ccc(-c2c(C#N)c(N)nc3c2CCc2[nH]ncc2-3)cc1 [Example 40]	12
COc1ccc(-c2cc(-c3cccc(F)c3)c(C#N)c(N)n2)cc1 [Example 107]	97.3
COc1ccc(OCC2Cc3c(nc(N)c(C#N)c3N)O2)cc1 (stereo not drawn) [Example 93]	69.8
C=CCOCC1Cc2c(nc(N)c(C#N)c2N)O1 (stereo not drawn) [Example 116]	118
CSc1cc(N)c(C#N)c(N)n1 [Example 67]	41.6
N#Cc1c(N)nc2c(c1-c1ccco1)CCc1[nH]ccc1-2 [Example 34]	9.4
N#Cc1c(N)nc2c(c1-c1ccco1)CCc1c[nH]cc1-2 [Example 24]	6.2
CCCCC1Cc2c(nc(N)c(C#N)c2N)O1 (stereo not drawn) [Example 77]	49.1
CC(=O)Nc1ccc(-c2c(C#N)c(N)nc3c2CCc2[nH]ncc2-3)cc1 [Example 62]	35.9
N#Cc1c(-c2ccccc2F)cc(-c2ccoc2)nc1N [Example 49]	17.9
N#Cc1c(N)nc2c(c1-c1ccc(C(=O)O)cc1)CCc1[nH]ncc1-2 [Example 134]	155
N#Cc1c(N)nc2c(c1-c1ccc(F)cc1)CCc1n[nH]cc1-2 [Example 42]	12.9
Cc1ccc(-c2cc(-c3ccccc3Cl)c(C#N)c(N)n2)o1 [Example 148]	192
CC1Cc2n[nH]cc2-c2nc(N)c(C#N)c(-c3ccccc3F)c21 (stereo not drawn) [Example 130]	142
